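These data come from cells grown in 96-well plates and exposed to compound for 48 hours at five concentrations. TGI is the concentration that stops growth completely.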
Key:
Assay in all cases: DTP human tumour cell line panel, 48 h
786-0 renal = tested on: 786-0 renal
A498 renal = tested on: A498 renal
A549 NSCLC = tested on: A549 NSCLC
ACHN renal = tested on: ACHN renal
BT-549 breast = tested on: BT-549 breast
CAKI-1 renal = tested on: CAKI-1 renal
CCRF-CEM leukemia = tested on: CCRF-CEM leukemia
COLO 205 colon = tested on: COLO 205 colon
DU-145 prostate = tested on: DU-145 prostate
EKVX NSCLC = tested on: EKVX NSCLC
HCC-2998 colon = tested on: HCC-2998 colon
HCT-116 colon = tested on: HCT-116 colon
HCT-15 colon = tested on: HCT-15 colon
HL-60(TB) leukemia = tested on: HL-60(TB) leukemia
HOP-62 NSCLC = tested on: HOP-62 NSCLC
HOP-92 NSCLC = tested on: HOP-92 NSCLC
HS 578T breast = tested on: HS 578T breast
HT29 colon = tested on: HT29 colon
IGROV1 ovarian = tested on: IGROV1 ovarian
K-562 leukemia = tested on: K-562 leukemia
KM12 colon = tested on: KM12 colon
LOX IMVI melanoma = tested on: LOX IMVI melanoma
M14 melanoma = tested on: M14 melanoma
MCF7 breast = tested on: MCF7 breast
MDA-MB-231 breast = tested on: MDA-MB-231 breast
MDA-MB-435 = tested on: MDA-MB-435
MDA-N = tested on: MDA-N
MOLT-4 leukemia = tested on: MOLT-4 leukemia
NCI-H226 lung = tested on: NCI-H226 lung
NCI-H23 lung = tested on: NCI-H23 lung
NCI-H460 lung = tested on: NCI-H460 lung
NCI-H522 lung = tested on: NCI-H522 lung
NCI/ADR-RES ovarian = tested on: NCI/ADR-RES ovarian
OVCAR-3 ovarian = tested on: OVCAR-3 ovarian
OVCAR-4 ovarian = tested on: OVCAR-4 ovarian
OVCAR-5 ovarian = tested on: OVCAR-5 ovarian
OVCAR-8 ovarian = tested on: OVCAR-8 ovarian
PC-3 prostate = tested on: PC-3 prostate
RPMI-8226 leukemia = tested on: RPMI-8226 leukemia
SF-268 CNS = tested on: SF-268 CNS
SF-295 CNS = tested on: SF-295 CNS
SF-539 CNS = tested on: SF-539 CNS
SK-MEL-2 melanoma = tested on: SK-MEL-2 melanoma
SK-MEL-28 melanoma = tested on: SK-MEL-28 melanoma
SK-MEL-5 melanoma = tested on: SK-MEL-5 melanoma
SK-OV-3 ovarian = tested on: SK-OV-3 ovarian
SN12C renal = tested on: SN12C renal
SNB-19 CNS = tested on: SNB-19 CNS
SNB-75 CNS = tested on: SNB-75 CNS
SW-620 colon = tested on: SW-620 colon
T-47D breast = tested on: T-47D breast
TK-10 renal = tested on: TK-10 renal
U251 CNS = tested on: U251 CNS
UACC-257 melanoma = tested on: UACC-257 melanoma
UACC-62 melanoma = tested on: UACC-62 melanoma
UO-31 renal = tested on: UO-31 renal
MALME-3M melanoma = tested on: MALME-3M melanoma

Structure (SMILES): COC(=O)C1=COC(C)C2C[n+]3ccc4c([nH]c5ccccc54)c3CC12 (configuration not stated)
- TGI (786-0 renal): > 100 µM
- TGI (A498 renal): > 100 µM
- TGI (A549 NSCLC): > 100 µM
- TGI (ACHN renal): > 100 µM
- TGI (BT-549 breast): > 100 µM
- TGI (CAKI-1 renal): > 100 µM
- TGI (CCRF-CEM leukemia): > 100 µM
- TGI (COLO 205 colon): > 100 µM
- TGI (DU-145 prostate): > 100 µM
- TGI (EKVX NSCLC): > 100 µM
- TGI (HCC-2998 colon): > 100 µM
- TGI (HCT-116 colon): > 100 µM
- TGI (HCT-15 colon): > 100 µM
- TGI (HL-60(TB) leukemia): > 100 µM
- TGI (HOP-62 NSCLC): > 100 µM
- TGI (HOP-92 NSCLC): > 100 µM
- TGI (HS 578T breast): > 100 µM
- TGI (HT29 colon): > 100 µM
- TGI (IGROV1 ovarian): > 100 µM
- TGI (K-562 leukemia): > 100 µM
- TGI (KM12 colon): > 100 µM
- TGI (LOX IMVI melanoma): > 100 µM
- TGI (M14 melanoma): > 100 µM
- TGI (MCF7 breast): > 100 µM
- TGI (MDA-MB-231 breast): > 100 µM
- TGI (MDA-MB-435): > 100 µM
- TGI (MDA-N): > 100 µM
- TGI (MOLT-4 leukemia): > 100 µM
- TGI (NCI-H226 lung): > 100 µM
- TGI (NCI-H23 lung): > 100 µM
- TGI (NCI-H460 lung): > 100 µM
- TGI (NCI-H522 lung): > 100 µM
- TGI (NCI/ADR-RES ovarian): > 100 µM
- TGI (OVCAR-3 ovarian): > 100 µM
- TGI (OVCAR-4 ovarian): > 100 µM
- TGI (OVCAR-5 ovarian): > 100 µM
- TGI (OVCAR-8 ovarian): > 100 µM
- TGI (PC-3 prostate): > 100 µM
- TGI (RPMI-8226 leukemia): > 100 µM
- TGI (SF-268 CNS): > 100 µM
- TGI (SF-295 CNS): > 100 µM
- TGI (SF-539 CNS): > 100 µM
- TGI (SK-MEL-2 melanoma): > 100 µM
- TGI (SK-MEL-28 melanoma): > 100 µM
- TGI (SK-MEL-5 melanoma): > 100 µM
- TGI (SK-OV-3 ovarian): > 100 µM
- TGI (SN12C renal): > 100 µM
- TGI (SNB-19 CNS): > 100 µM
- TGI (SNB-75 CNS): > 100 µM
- TGI (SW-620 colon): > 100 µM
- TGI (T-47D breast): > 100 µM
- TGI (TK-10 renal): > 100 µM
- TGI (U251 CNS): > 100 µM
- TGI (UACC-257 melanoma): > 100 µM
- TGI (UACC-62 melanoma): > 100 µM
- TGI (UO-31 renal): > 100 µM

Structure (SMILES): Cc1ccc(S(=O)(=O)N(CC(O)c2ccccc2)c2ccccc2F)cc1 (configuration not stated)
- TGI (786-0 renal): 34.7 µM
- TGI (A498 renal): 36 µM
- TGI (A549 NSCLC): 41.4 µM
- TGI (ACHN renal): 40.1 µM
- TGI (BT-549 breast): 32 µM
- TGI (CAKI-1 renal): 33.7 µM
- TGI (CCRF-CEM leukemia): 64.5 µM
- TGI (COLO 205 colon): 28.8 µM
- TGI (DU-145 prostate): 32.2 µM
- TGI (EKVX NSCLC): > 100 µM
- TGI (HCC-2998 colon): 53.2 µM
- TGI (HCT-116 colon): 26.4 µM
- TGI (HCT-15 colon): 33 µM
- TGI (HL-60(TB) leukemia): 9.13 µM
- TGI (HOP-62 NSCLC): 33.8 µM
- TGI (HOP-92 NSCLC): 22.9 µM
- TGI (HS 578T breast): 41.1 µM
- TGI (HT29 colon): 34.4 µM
- TGI (IGROV1 ovarian): 41.2 µM
- TGI (K-562 leukemia): 44.5 µM
- TGI (KM12 colon): 42.6 µM
- TGI (LOX IMVI melanoma): 31.5 µM
- TGI (M14 melanoma): 31.9 µM
- TGI (MALME-3M melanoma): 34.1 µM
- TGI (MCF7 breast): 28 µM
- TGI (MDA-MB-231 breast): 36.6 µM
- TGI (MDA-MB-435): 32.9 µM
- TGI (MDA-N): 33.8 µM
- TGI (NCI-H226 lung): 48.7 µM
- TGI (NCI-H23 lung): 36.9 µM
- TGI (NCI-H460 lung): 32.5 µM
- TGI (NCI-H522 lung): 32 µM
- TGI (NCI/ADR-RES ovarian): 35.1 µM
- TGI (OVCAR-3 ovarian): 25 µM
- TGI (OVCAR-4 ovarian): 27.4 µM
- TGI (OVCAR-5 ovarian): 41 µM
- TGI (OVCAR-8 ovarian): 36.9 µM
- TGI (PC-3 prostate): 32.2 µM
- TGI (RPMI-8226 leukemia): 39 µM
- TGI (SF-268 CNS): 31.1 µM
- TGI (SF-295 CNS): 37.9 µM
- TGI (SF-539 CNS): 30.7 µM
- TGI (SK-MEL-2 melanoma): 32.1 µM
- TGI (SK-MEL-28 melanoma): 33.1 µM
- TGI (SK-MEL-5 melanoma): 29.6 µM
- TGI (SK-OV-3 ovarian): 38.4 µM
- TGI (SN12C renal): 34.3 µM
- TGI (SNB-19 CNS): 37.5 µM
- TGI (SNB-75 CNS): 30.3 µM
- TGI (SW-620 colon): 39.9 µM
- TGI (T-47D breast): 40.7 µM
- TGI (TK-10 renal): 45.8 µM
- TGI (U251 CNS): 36.7 µM
- TGI (UACC-257 melanoma): 16.1 µM
- TGI (UACC-62 melanoma): 28 µM
- TGI (UO-31 renal): 29.8 µM

From PubChem BioAssay (NCI)
